From patent publication US6930208B2, “3-Keto- or 3- oxime-ether-substituted benzoylcyclohexanediones” (Bayer CropScience GmbH, priority 2002, dated 2005)

How the values were obtained:
Test in all cases: Plant tolerance (greenhouse, post-emergence)
Assay type in all cases: in vivo
Conditions in all cases: visual scoring four to five weeks after application
rice = tested on: rice
Procedure: (§1) Seeds of mono- and dicotyledonous harmful plants are placed in sandy loam in cardboard pots, covered with soil and grown in the greenhouse under good growth conditions. 2 to 3 weeks after sowing, the test plants are treated in the three-leaf stage. The compounds according to the invention, which are formulated as wettable powders or as emulsion concentrates, are sprayed at various dosages onto the surface of the green plant parts at an application rate of 600 to 800 l of water per ha (converted). After the test plants have been left to stand in the greenhouse for 3 to 4 weeks under optimal growth conditions, the effect of the compounds is scored visually. The chosen compounds according to the invention have an outstanding activity against a broad spectrum of economically important monocotyledonous and dicotyledonous harmful plants.
(§2) In further greenhouse experiments, seeds of crop plants and of monocotyledonous and dicotyledonous harmful plants are placed in sandy loam, covered with soil and placed in the greenhouse until the plants have developed two to three true leaves. Then, they are treated with the compounds of the formula (I) according to the invention as described above under item 1. […] Thus, for example, the compounds of examples Nos. 4.16 and 4.98 cause, at a dosage of 320 g/ha, no damage in wheat, rice and maize. The compounds of examples Nos. 1.4, 1.8, 4.16, 4.19 and 4.98 caused, at 80 g/ha, no damage in wheat, rice and maize.

wheat = tested on: wheat
Procedure: as §1, §2

maize = tested on: maize
Procedure: as §1, §2

CCC(=O)COc1c(S(C)(=O)=O)ccc(C(=O)C2=C(O)CCCC2=O)c1Cl [Example 1.4]
no damage: damage in rice (rice; 80 g/ha) | damage in wheat (wheat; 80 g/ha) | damage in maize (maize; 80 g/ha)

CC1(C)CC(=O)C(C(=O)c2ccc(S(C)(=O)=O)c(OCC(=O)C(C)(C)C)c2Cl)=C(O)C1 [Example 1.8]
no damage: damage in rice (rice; 80 g/ha) | damage in wheat (wheat; 80 g/ha) | damage in maize (maize; 80 g/ha)

CCON=C(C)COc1c(S(C)(=O)=O)ccc(C(=O)C2=C(O)CCCC2=O)c1Cl [Example 4.16]
no damage: damage in rice (rice; 80 g/ha) | damage in rice (rice; 320 g/ha) | damage in wheat (wheat; 80 g/ha) | damage in wheat (wheat; 320 g/ha) | damage in maize (maize; 80 g/ha) | damage in maize (maize; 320 g/ha)

C=CCON=C(C)COc1c(S(C)(=O)=O)ccc(C(=O)C2=C(O)CCCC2=O)c1Cl [Example 4.19]
no damage: damage in rice (rice; 80 g/ha) | damage in wheat (wheat; 80 g/ha) | damage in maize (maize; 80 g/ha)

CCON=C(CC)COc1c(S(C)(=O)=O)ccc(C(=O)C2=C(O)CCCC2=O)c1Cl [Example 4.98]
no damage: damage in rice (rice; 80 g/ha) | damage in rice (rice; 320 g/ha) | damage in wheat (wheat; 80 g/ha) | damage in wheat (wheat; 320 g/ha) | damage in maize (maize; 80 g/ha) | damage in maize (maize; 320 g/ha)
